From PubChem BioAssay (NCI)
Where “and” joins values, the source holds several entries; their conditions need not be identical. Equal entries are not always repeated.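 Cultured in 96-well plates, cells were exposed to test compound for 48 hours across five concentrations. GI50 marks 50% less growth. TGI: concentration producing complete growth inhibition.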

Legend:
Experiment in all cases: NCI tumour cell line growth inhibition, 48 h
ACHN renal = system: ACHN renal
BT-549 breast = system: BT-549 breast
EKVX NSCLC = system: EKVX NSCLC
MDA-MB-435 = system: MDA-MB-435
MOLT-4 leukemia = system: MOLT-4 leukemia
OVCAR-3 ovarian = system: OVCAR-3 ovarian
SF-539 CNS = system: SF-539 CNS
SK-MEL-28 melanoma = system: SK-MEL-28 melanoma
SK-MEL-5 melanoma = system: SK-MEL-5 melanoma
SNB-75 CNS = system: SNB-75 CNS

SMILES	GI50 (ACHN renal)	TGI (ACHN renal)	GI50 (BT-549 breast)	TGI (BT-549 breast)	GI50 (EKVX NSCLC)	TGI (EKVX NSCLC)	GI50 (MDA-MB-435)	TGI (MDA-MB-435)	GI50 (MOLT-4 leukemia)	TGI (MOLT-4 leukemia)	GI50 (OVCAR-3 ovarian)	TGI (OVCAR-3 ovarian)	GI50 (SF-539 CNS)	TGI (SF-539 CNS)	GI50 (SK-MEL-28 melanoma)	TGI (SK-MEL-28 melanoma)	GI50 (SK-MEL-5 melanoma)	TGI (SK-MEL-5 melanoma)	GI50 (SNB-75 CNS)	TGI (SNB-75 CNS)
Cc1ccc2c(c1)C(=O)c1c-2c(OCCCN(C)C)nc2ccccc12	731 nM	2110 nM	6020 nM	20200 nM	2420 nM	13500 nM	1540 nM	2970 nM	427 nM	4570 nM	5720 nM	19800 nM	1530 nM	2990 nM	1760 nM	3410 nM	4140 nM	16300 nM	2220 nM	15500 nM
C[C@]12CC[C@H]3[C@@H](CC4SC(N)=NC45C/C(=N/NC(N)=O)CC[C@]35C)[C@@H]1CCC2=O (stereo partly drawn)	1800 nM	3190 nM	2840 nM	8910 nM	1800 nM	3630 nM	1330 nM	2700 nM	2640 nM	7020 nM	1870 nM	3440 nM	2050 nM	5230 nM	1630 nM	3100 nM	1570 nM	2970 nM	1580 nM	3500 nM
O=C(CI)Nc1ccc(O)c2ccccc12	1490 nM	2840 nM	2280 nM	6250 nM	2520 nM	8590 nM	1900 nM	4340 nM	846 nM	8180 nM	857 nM	2230 nM	1800 nM	4470 nM	1780 nM	3740 nM	1630 nM	3080 nM	1610 nM	4980 nM
CC(C)C(=O)c1c(C(F)(F)F)n([O-])c2cc(F)c(F)cc2[n+]1=O	155 nM	324 nM	587 nM	1900 nM	1530 nM	3400 nM	724 nM	2150 nM	93.3 nM	–	667 nM	2010 nM	381 nM	1000 nM	550 nM	3150 nM	197 nM	609 nM	1080 nM	2750 nM
COC(=O)C(=O)C(C(=O)C(=O)Nc1ccccc1OC)c1nc2ccc([N+](=O)[O-])cc2[nH]c1=O (stereo not drawn)	–	> 100000 nM	–	> 100000 nM	–	> 100000 nM	–	> 100000 nM	–	> 100000 nM	–	> 100000 nM	–	> 100000 nM	–	> 100000 nM	–	> 100000 nM	–	> 100000 nM
CCC1(OC(=O)CN)C(=O)OCc2c1cc1n(c2=O)Cc2cc3ccccc3nc2-1 (stereo not drawn)	4.76 nM	183 nM and 62.8 nM	459 nM	–	164 nM	17400 nM	130 nM	348 nM and 504 nM	3.96 nM	30.5 nM	308 nM	731 nM and 557 nM	37.8 nM	191 nM and 25.3 nM	851 nM	38700 nM	18.7 nM and < 12.8 nM	107 nM and 32.9 nM	18.3 nM	246 nM and 484 nM
COc1cc(OC)c(OC)cc1/C=C/c1cnnc2ccccc12	–	> 10000 nM	–	> 10000 nM	–	> 10000 nM	–	6520 nM	–	> 10000 nM	–	> 10000 nM	–	> 10000 nM	–	> 10000 nM	–	> 10000 nM	–	> 10000 nM
O=CN1N=C(c2cccc(Nc3ccnc4cc(Cl)ccc34)c2)CC1c1ccccc1 (stereo not drawn)	778 nM	> 79400 nM	207 nM	1510 nM	949 nM	> 100000 nM	88.9 nM	432 nM	383 nM	2770 nM	269 nM	774 nM	370 nM	2490 nM	650 nM	24600 nM	315 nM	2020 nM	191 nM	1830 nM
Clc1ccc2nc(CI)c(CI)nc2c1	1830 nM	3400 nM	2110 nM	5580 nM	13600 nM	40900 nM	3160 nM	14400 nM	1890 nM	9080 nM	3020 nM	7140 nM	2460 nM	6310 nM	14400 nM	27700 nM	4590 nM	14300 nM	8870 nM	23200 nM
C[C@H]1COCCN1c1cc(C2(S(=O)(=O)C3CC3)CC2)nc(-c2ccc(NC(=S)NCCO)cc2)n1	70.5 nM	> 100000 nM	< 12 nM	134 nM	26.7 nM	3760 nM	24.4 nM	1190 nM	46.7 nM	> 37800 nM	22 nM	11700 nM	29.2 nM	347 nM	< 10 nM	1100 nM	15.1 nM	147 nM	< 10 nM	86.5 nM
Cc1nc2ccccn2c1NC(=O)NNC(=S)Nc1ccc(F)cc1	> 100000 nM	> 100000 nM	> 100000 nM	> 100000 nM	> 100000 nM	> 100000 nM	> 100000 nM	> 100000 nM	20400 nM	> 100000 nM	> 100000 nM	> 100000 nM	> 100000 nM	> 100000 nM	> 100000 nM	> 100000 nM	> 100000 nM	> 100000 nM	> 100000 nM	> 100000 nM
O=c1oc2cc(OC/C(=N/O)c3ccc(F)cc3)ccc2c2ccccc12	20400 nM	41600 nM	21700 nM	42300 nM	20900 nM	42500 nM	17300 nM	38700 nM	16700 nM	42700 nM	17600 nM	40600 nM	20100 nM	36400 nM	20000 nM	37200 nM	20900 nM	36300 nM	23700 nM	43900 nM
Cn1c(-c2ccccc2)c(/C=C/C2=[N+](C)c3ccccc3C2(C)C)c2ccccc21	3050 nM	11700 nM	476 nM	3710 nM	397 nM	10400 nM	486 nM	4020 nM	1060 nM	4060 nM	664 nM	6370 nM	2590 nM	14200 nM	1190 nM	11800 nM	363 nM	1350 nM	1630 nM	10700 nM
COc1ccc(NC(=O)c2sc3nc(C)c(C(=O)/C=C/c4cccc(OC)c4)cc3c2N)cc1	1080 nM	2490 nM	1020 nM	2670 nM	5700 nM	32500 nM	1350 nM	6780 nM	1500 nM	> 50000 nM	939 nM	2680 nM	1310 nM	3490 nM	–	–	3550 nM	10700 nM	1450 nM	4870 nM
COc1ccc(/C=C2\SC(=Nc3ccccc3)NC2=O)cc1	5530 nM	48500 nM	45700 nM	> 100000 nM	–	–	2140 nM	5340 nM	4770 nM	> 100000 nM	3670 nM	11200 nM	3600 nM	15100 nM	8060 nM	44800 nM	7630 nM	30500 nM	2420 nM	10900 nM
COc1cc(C(=O)O[C@H](C(=O)NCCN(C)CCNC(=O)[C@@H](OC(=O)c2cc(OC)cc3c(C)cccc23)[C@]2(C)CO2)[C@]2(C)CO2)c2cccc(C)c2c1	–	–	342 nM	4850 nM	106 nM	1720 nM	< 10 nM	39.8 nM	< 10 nM	153 nM	–	–	< 10 nM	50.4 nM	171 nM	512 nM	17.3 nM	178 nM	111 nM	1020 nM
O=C1C(=O)c2ccccc2C(O)=C1CCCc1ccc(C2CCCCC2)cc1	5150 nM	> 100000 nM	3190 nM	39300 nM	3220 nM	20900 nM	3640 nM	22600 nM	4240 nM	> 100000 nM	960 nM	15200 nM	5780 nM	28700 nM	8540 nM	27200 nM	1520 nM	13900 nM	5170 nM	91000 nM
CC(C)c1cccc(O)c(=O)c1	1.75 µg/mL	18.3 µg/mL and 48.9 µM	3.57 µg/mL	42.4 µg/mL	1.45 µg/mL	–	2.14 µg/mL	39 µg/mL	–	> 46900 nM	2.5 µg/mL	–	4.51 µg/mL	–	0.138 µg/mL	–	1.35 µg/mL	–	–	> 92600 nM
CC(C)=CC(=O)N[C@H]1CC[C@]2(C)C3CC[C@]4(C)C(C(C)N(C)C)=CCC4C3CCC2[C@H]1O (stereo partly drawn)	7950 nM	21300 nM	5990 nM	20800 nM	6380 nM	23200 nM	2000 nM	4530 nM	2810 nM	11400 nM	4120 nM	15700 nM	1590 nM	3380 nM	1820 nM	3400 nM	1480 nM	2950 nM	8760 nM	21800 nM
O=C(Nc1ccc(F)cc1)Nc1ccc(Br)c(C(F)(F)F)c1	2090 nM	7640 nM	2050 nM	7400 nM	2400 nM	10600 nM	2400 nM	8590 nM	1950 nM	5530 nM	1650 nM	11600 nM	2580 nM	8430 nM	2830 nM	11100 nM	1670 nM	3110 nM	1790 nM	5380 nM
O=C(c1ccco1)c1c(C(F)(F)F)n([O-])c2cc(C(F)(F)F)ccc2[n+]1=O	338 nM	748 nM	486 nM	1090 nM	859 nM	2360 nM	1470 nM	3100 nM	77.3 nM	162 nM	1430 nM	3130 nM	1270 nM	2610 nM	1670 nM	3270 nM	683 nM	1700 nM	1550 nM	2960 nM
ClCc1ccccc1Cn1cnc2c(Cl)ncnc21	2700 nM	6100 nM	2000 nM	5510 nM	3110 nM	11000 nM	3010 nM	9490 nM	1600 nM	5280 nM	1400 nM	3530 nM	10700 nM	24200 nM	2310 nM	5480 nM	1400 nM	2880 nM	2860 nM	11100 nM
COC(=O)Nc1nc2ccc(C(=O)c3ccccc3)cc2[nH]1	2230 nM and 1330 nM	> 100000 nM	1200 nM and 3270 nM	> 100000 nM and 52100 nM	–	> 100000 nM	178 nM and 34.3 nM	485 nM and 211 nM	536 nM and 393 nM	> 45800 nM	324 nM and 172 nM	864 nM and 415 nM	577 nM and 238 nM	–	651 nM and 464 nM	> 100000 nM	350 nM and 215 nM	14000 nM and 1470 nM	256 nM and 86.6 nM	> 100000 nM and 17000 nM
C=C1C(=O)O[C@H]2[C@H]1CC/C(COC(=O)CCCc1c[nH]c3ccccc13)=C\CC[C@@]1(C)O[C@@H]21	–	–	1370 nM	3060 nM	2020 nM	5010 nM	1740 nM	3550 nM	1530 nM	4940 nM	1530 nM	3020 nM	1630 nM	3070 nM	1700 nM	3270 nM	1740 nM	3130 nM	12600 nM	26600 nM
C=C1C(=O)O[C@H]2[C@H]1CC/C(Cn1cc(-c3ccc(F)cc3)nn1)=C\CC[C@@]1(C)O[C@@H]21	182 nM	445 nM	838 nM	2130 nM	1490 nM	2970 nM	1000 nM	2390 nM	387 nM	2000 nM	491 nM	1690 nM	271 nM	1080 nM	822 nM	2210 nM	1740 nM	3120 nM	1250 nM	2500 nM
Nc1ccc(COC(O)CN2CCCCC2)cc1[N+](=O)[O-] (stereo not drawn)	–	> 100000 nM	–	> 100000 nM	–	–	–	> 100000 nM	–	> 100000 nM	–	> 100000 nM	–	> 100000 nM	–	> 100000 nM	–	> 100000 nM	–	> 100000 nM
